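Results reflect a 48-hour exposure of cells in 96-well plates to compound at five concentrations. GI50: concentration for 50% inhibition of growth.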 The source made the active and inactive calls. Rule as the data show it: active = GI50 up to about 1.1 µM and inactive = higher.
Key:
Experiment in all cases: NCI anticancer screen, dose series, 48 h
[1] = system: 786-0
[2] = system: A549
[3] = system: ACHN
[4] = system: CAKI-1
[5] = system: CCRF-CEM
[6] = system: DMS-273
[7] = system: EKVX
[8] = system: HCT-116
[9] = system: HL-60
[10] = system: HOP-92
[11] = system: HT-29
[12] = system: IGROV-1
[13] = system: K562
[14] = system: KM-20L2
[15] = system: KM12
[16] = system: LOX IMVI
[17] = system: LXFL 529
[18] = system: M14
[19] = system: M19-MEL
[20] = system: MOLT-4
[21] = system: NCI-H226
[22] = system: NCI-H522
[23] = system: OVCAR-3
[24] = system: RPMI-8226
[25] = system: RXF 631
[26] = system: SF-268
[27] = system: SF-295
[28] = system: SF-539
[29] = system: SK-MEL-28
[30] = system: SK-MEL-5
[31] = system: SK-OV-3
[32] = system: SNB-75
[33] = system: SR
[34] = system: SW-620
[35] = system: TK-10
[36] = system: UACC-257
[37] = system: UACC-62
[38] = system: A498
[39] = system: COLO 205
[40] = system: DLD-1
[41] = system: DMS-114
[42] = system: HCC 2998
[43] = system: HCT-15
[44] = system: HOP-62
[45] = system: NCI-H23
[46] = system: NCI-H460
[47] = system: OVCAR-8
[48] = system: RXF 393
[49] = system: SK-MEL-2
[50] = system: SN12C
[51] = system: SNB-19
[52] = system: SNB-78
[53] = system: U-251

With `N#CCc1ccccc1/C(C#N)=C1/OC(=N)C(c2ccccc2CC#N)C1=O` (centres undefined) as the compound, how does the GI50 [1] read?
Its GI50 is > 100 µM (inactive).

What about the GI50 [2] of the same compound?
The GI50 was > 100 µM (inactive).

What about the GI50 [3] of the same compound?
The GI50 was > 100 µM (inactive).

What about the GI50 [4] of the same compound?
The GI50 was > 100 µM (inactive).

What about the GI50 [5] of the same compound?
The GI50 was > 100 µM (inactive).

What about the GI50 [6] of the same compound?
The GI50 was > 100 µM (inactive).

And the GI50 [7]?
The GI50 was > 100 µM (inactive).

And the GI50 [8]?
The GI50 was > 100 µM (inactive).

What about the GI50 [9] of the same compound?
Its GI50 is > 100 µM (inactive).

What about the GI50 [10] of the same compound?
The GI50 was > 100 µM (inactive).

What about the GI50 [11] of the same compound?
The GI50 was 92 µM (inactive).

What about the GI50 [12] of the same compound?
Its GI50 is > 100 µM (inactive).

And the GI50 [13]?
The GI50 was > 100 µM (inactive).

And the GI50 [14]?
The GI50 was > 100 µM (inactive).

And the GI50 [15]?
Its GI50 is > 100 µM (inactive).

What about the GI50 [16] of the same compound?
Its GI50 is > 100 µM (inactive).

What about the GI50 [17] of the same compound?
The GI50 was 43.2 µM (inactive).

What about the GI50 [18] of the same compound?
Its GI50 is > 100 µM (inactive).

And the GI50 [19]?
Its GI50 is > 100 µM (inactive).

And the GI50 [20]?
Its GI50 is 57.8 µM (inactive).

And the GI50 [21]?
The GI50 was > 100 µM (inactive).

What about the GI50 [22] of the same compound?
Its GI50 is 47.4 µM (inactive).

And the GI50 [23]?
The GI50 was > 100 µM (inactive).

What about the GI50 [24] of the same compound?
The GI50 was > 100 µM (inactive).

What about the GI50 [25] of the same compound?
The GI50 was > 100 µM (inactive).

What about the GI50 [26] of the same compound?
Its GI50 is > 100 µM (inactive).

And the GI50 [27]?
Its GI50 is > 100 µM (inactive).

And the GI50 [28]?
Its GI50 is > 100 µM (inactive).

And the GI50 [29]?
The GI50 was > 100 µM (inactive).

What about the GI50 [30] of the same compound?
The GI50 was > 100 µM (inactive).

And the GI50 [31]?
Its GI50 is > 100 µM (inactive).

And the GI50 [32]?
The GI50 was > 100 µM (inactive).

What about the GI50 [33] of the same compound?
Its GI50 is > 100 µM (inactive).

And the GI50 [34]?
Its GI50 is > 100 µM (inactive).

What about the GI50 [35] of the same compound?
The GI50 was > 100 µM (inactive).

And the GI50 [36]?
Its GI50 is > 100 µM (inactive).

And the GI50 [37]?
Its GI50 is 42.2 µM (inactive).

For `CC(=O)n1ccc2c(Cl)ncnc21`, which GI50 [1] is on record?
The GI50 was > 100 µM (inactive).

And the GI50 [38]?
The GI50 was > 100 µM (inactive).

And the GI50 [2]?
The GI50 was > 100 µM (inactive).

What about the GI50 [3] of the same compound?
Its GI50 is > 100 µM (inactive).

What about the GI50 [4] of the same compound?
The GI50 was > 61.4 µM (inactive).

And the GI50 [5]?
Its GI50 is > 100 µM (inactive).

And the GI50 [39]?
Its GI50 is > 100 µM (inactive).

What about the GI50 [40] of the same compound?
The GI50 was > 100 µM (inactive).

And the GI50 [41]?
The GI50 was > 100 µM (inactive).

What about the GI50 [6] of the same compound?
The GI50 was > 100 µM (inactive).

What about the GI50 [7] of the same compound?
Its GI50 is > 67.3 µM (inactive).

And the GI50 [42]?
Its GI50 is > 100 µM (inactive).

What about the GI50 [8] of the same compound?
The GI50 was > 100 µM (inactive).

And the GI50 [43]?
Its GI50 is over 100 µM.

What about the GI50 [9] of the same compound?
The GI50 was > 100 µM (inactive).

And the GI50 [44]?
Its GI50 is > 100 µM (inactive).

And the GI50 [10]?
The GI50 was > 100 µM (inactive).

And the GI50 [11]?
The GI50 was > 100 µM (inactive).

What about the GI50 [12] of the same compound?
The GI50 was > 100 µM (inactive).

What about the GI50 [13] of the same compound?
The GI50 was > 100 µM (inactive).

What about the GI50 [14] of the same compound?
Its GI50 is > 100 µM (inactive).

And the GI50 [15]?
Its GI50 is > 100 µM (inactive).

What about the GI50 [16] of the same compound?
Its GI50 is > 100 µM (inactive).

What about the GI50 [17] of the same compound?
Its GI50 is > 100 µM (inactive).

And the GI50 [18]?
The GI50 was > 100 µM (inactive).

And the GI50 [19]?
Its GI50 is > 100 µM (inactive).

What about the GI50 [20] of the same compound?
The GI50 was > 100 µM (inactive).

And the GI50 [45]?
The GI50 was > 100 µM (inactive).

And the GI50 [46]?
The GI50 was > 100 µM (inactive).

And the GI50 [22]?
Its GI50 is > 37.6 µM (inactive).

What about the GI50 [23] of the same compound?
Its GI50 is > 100 µM (inactive).

And the GI50 [47]?
The GI50 was > 100 µM (inactive).

What about the GI50 [24] of the same compound?
Its GI50 is > 100 µM (inactive).

And the GI50 [48]?
Its GI50 is 0.038 µM (active).

And the GI50 [25]?
The GI50 was > 100 µM (inactive).

And the GI50 [26]?
Its GI50 is > 100 µM (inactive).

And the GI50 [27]?
Its GI50 is > 100 µM (inactive).

What about the GI50 [28] of the same compound?
The GI50 was > 100 µM (inactive).

And the GI50 [29]?
Its GI50 is > 100 µM (inactive).

And the GI50 [49]?
The GI50 was > 100 µM (inactive).

And the GI50 [30]?
Its GI50 is > 100 µM (inactive).

What about the GI50 [31] of the same compound?
Its GI50 is > 100 µM (inactive).

What about the GI50 [50] of the same compound?
The GI50 was > 100 µM (inactive).

What about the GI50 [51] of the same compound?
The GI50 was > 100 µM (inactive).

What about the GI50 [32] of the same compound?
The GI50 was < 0.01 µM (active).

What about the GI50 [52] of the same compound?
Its GI50 is > 100 µM (inactive).

And the GI50 [33]?
The GI50 was > 100 µM (inactive).

What about the GI50 [34] of the same compound?
Its GI50 is > 100 µM (inactive).

What about the GI50 [35] of the same compound?
Its GI50 is > 100 µM (inactive).

What about the GI50 [53] of the same compound?
The GI50 was > 100 µM (inactive).

And the GI50 [36]?
The GI50 was > 100 µM (inactive).

What about the GI50 [37] of the same compound?
Its GI50 is > 100 µM (inactive).
